From publication PMC6784069 (Toxins, 2019)
Values joined by “and” are separate entries in the source; they are usually repeats but may differ in a detail not shown here. Identical values can stand only once. Like-named read-outs stand apart in the source and are kept apart here. Residues, ends and D or L forms follow the SMILES beside them.

What was measured:
hKV11.1 [1] = molecular target: T1, hKV11.1 (Homo sapiens, UniProt Q12809); assay: in vitro; details: pH 7.4
hNaV1.2 = hNaV1.2 (Homo sapiens, UniProt Q99250); assay: cell-based; details: SD
hKV11.1 [2] = molecular target: T1, hKV11.1
hCaV1.2 = hCaV1.2 (Homo sapiens, UniProt Q13936); assay: cell-based; details: SD
hNaV1.5 = hNaV1.5 (Homo sapiens, UniProt Q14524); assay: cell-based; details: IC50 on hNaV1.5 current; SD
hNaV1.8 = hNaV1.8 (Homo sapiens, UniProt Q9Y5Y9); assay: cell-based; assay type: cell-based
Sequence of hNaV1.8 (Q07699 19-218): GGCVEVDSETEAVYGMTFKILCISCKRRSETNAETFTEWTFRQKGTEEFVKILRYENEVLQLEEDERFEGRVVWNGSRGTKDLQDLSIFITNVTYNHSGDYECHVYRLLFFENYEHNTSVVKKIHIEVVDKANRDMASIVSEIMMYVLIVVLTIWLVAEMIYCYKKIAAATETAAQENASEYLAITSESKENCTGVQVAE
Sequence of hNaV1.8 (Q9Y5Y9 whole entry): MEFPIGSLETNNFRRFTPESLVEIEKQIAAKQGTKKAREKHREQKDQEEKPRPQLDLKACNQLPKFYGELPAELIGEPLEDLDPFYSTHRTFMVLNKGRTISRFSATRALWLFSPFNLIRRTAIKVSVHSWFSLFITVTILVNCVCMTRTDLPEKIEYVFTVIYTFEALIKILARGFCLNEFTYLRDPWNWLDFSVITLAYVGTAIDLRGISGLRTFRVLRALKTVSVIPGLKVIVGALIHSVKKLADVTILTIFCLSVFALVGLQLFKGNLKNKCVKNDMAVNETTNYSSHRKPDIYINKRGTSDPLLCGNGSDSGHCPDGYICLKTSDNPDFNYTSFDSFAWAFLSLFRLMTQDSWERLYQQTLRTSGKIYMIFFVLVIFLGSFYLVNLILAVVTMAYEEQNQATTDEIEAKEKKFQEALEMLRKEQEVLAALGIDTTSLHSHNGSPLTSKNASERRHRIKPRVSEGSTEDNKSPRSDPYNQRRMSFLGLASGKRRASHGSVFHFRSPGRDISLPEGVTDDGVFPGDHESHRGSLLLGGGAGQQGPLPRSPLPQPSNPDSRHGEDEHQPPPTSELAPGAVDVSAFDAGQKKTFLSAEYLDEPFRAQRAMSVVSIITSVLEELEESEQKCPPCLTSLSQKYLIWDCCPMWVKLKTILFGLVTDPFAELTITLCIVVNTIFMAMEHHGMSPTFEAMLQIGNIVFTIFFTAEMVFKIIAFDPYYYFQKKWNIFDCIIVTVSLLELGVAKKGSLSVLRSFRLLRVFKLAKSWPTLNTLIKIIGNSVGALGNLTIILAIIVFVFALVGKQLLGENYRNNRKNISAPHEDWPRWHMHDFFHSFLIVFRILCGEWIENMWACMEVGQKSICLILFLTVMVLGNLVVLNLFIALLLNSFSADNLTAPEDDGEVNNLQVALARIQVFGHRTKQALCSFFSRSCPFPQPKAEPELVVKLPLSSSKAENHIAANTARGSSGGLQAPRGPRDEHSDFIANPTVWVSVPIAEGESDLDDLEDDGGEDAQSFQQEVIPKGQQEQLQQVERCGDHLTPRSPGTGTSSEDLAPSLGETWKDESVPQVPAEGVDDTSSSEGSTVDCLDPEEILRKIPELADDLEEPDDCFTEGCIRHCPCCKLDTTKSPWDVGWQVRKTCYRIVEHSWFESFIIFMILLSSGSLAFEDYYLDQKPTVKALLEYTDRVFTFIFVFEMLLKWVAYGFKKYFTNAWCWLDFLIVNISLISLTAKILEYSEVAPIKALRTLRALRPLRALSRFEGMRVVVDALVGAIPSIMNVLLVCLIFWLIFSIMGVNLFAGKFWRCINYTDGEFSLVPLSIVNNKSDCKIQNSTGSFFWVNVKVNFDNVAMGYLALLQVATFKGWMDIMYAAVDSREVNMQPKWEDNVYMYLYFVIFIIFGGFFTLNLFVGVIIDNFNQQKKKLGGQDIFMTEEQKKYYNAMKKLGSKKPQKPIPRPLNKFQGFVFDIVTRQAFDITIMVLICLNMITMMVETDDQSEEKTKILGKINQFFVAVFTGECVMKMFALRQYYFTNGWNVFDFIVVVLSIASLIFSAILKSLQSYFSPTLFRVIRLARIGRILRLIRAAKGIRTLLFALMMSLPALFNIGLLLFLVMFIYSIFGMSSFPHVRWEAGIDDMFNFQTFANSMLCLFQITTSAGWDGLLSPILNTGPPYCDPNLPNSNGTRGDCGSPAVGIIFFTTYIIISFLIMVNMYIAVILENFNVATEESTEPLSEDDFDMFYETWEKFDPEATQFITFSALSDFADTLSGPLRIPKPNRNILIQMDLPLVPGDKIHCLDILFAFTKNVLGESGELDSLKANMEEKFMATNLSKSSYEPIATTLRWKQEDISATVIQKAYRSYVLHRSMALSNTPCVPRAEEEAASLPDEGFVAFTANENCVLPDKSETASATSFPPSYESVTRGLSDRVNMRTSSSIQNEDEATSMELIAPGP

hNaV1.7 [3] = molecular target: T2, hNaV1.7 (Homo sapiens, UniProt Q15858); assay: cell-based; assay type: cell-based; details: for IC50: SD
T2 sequence (Q15858 whole entry): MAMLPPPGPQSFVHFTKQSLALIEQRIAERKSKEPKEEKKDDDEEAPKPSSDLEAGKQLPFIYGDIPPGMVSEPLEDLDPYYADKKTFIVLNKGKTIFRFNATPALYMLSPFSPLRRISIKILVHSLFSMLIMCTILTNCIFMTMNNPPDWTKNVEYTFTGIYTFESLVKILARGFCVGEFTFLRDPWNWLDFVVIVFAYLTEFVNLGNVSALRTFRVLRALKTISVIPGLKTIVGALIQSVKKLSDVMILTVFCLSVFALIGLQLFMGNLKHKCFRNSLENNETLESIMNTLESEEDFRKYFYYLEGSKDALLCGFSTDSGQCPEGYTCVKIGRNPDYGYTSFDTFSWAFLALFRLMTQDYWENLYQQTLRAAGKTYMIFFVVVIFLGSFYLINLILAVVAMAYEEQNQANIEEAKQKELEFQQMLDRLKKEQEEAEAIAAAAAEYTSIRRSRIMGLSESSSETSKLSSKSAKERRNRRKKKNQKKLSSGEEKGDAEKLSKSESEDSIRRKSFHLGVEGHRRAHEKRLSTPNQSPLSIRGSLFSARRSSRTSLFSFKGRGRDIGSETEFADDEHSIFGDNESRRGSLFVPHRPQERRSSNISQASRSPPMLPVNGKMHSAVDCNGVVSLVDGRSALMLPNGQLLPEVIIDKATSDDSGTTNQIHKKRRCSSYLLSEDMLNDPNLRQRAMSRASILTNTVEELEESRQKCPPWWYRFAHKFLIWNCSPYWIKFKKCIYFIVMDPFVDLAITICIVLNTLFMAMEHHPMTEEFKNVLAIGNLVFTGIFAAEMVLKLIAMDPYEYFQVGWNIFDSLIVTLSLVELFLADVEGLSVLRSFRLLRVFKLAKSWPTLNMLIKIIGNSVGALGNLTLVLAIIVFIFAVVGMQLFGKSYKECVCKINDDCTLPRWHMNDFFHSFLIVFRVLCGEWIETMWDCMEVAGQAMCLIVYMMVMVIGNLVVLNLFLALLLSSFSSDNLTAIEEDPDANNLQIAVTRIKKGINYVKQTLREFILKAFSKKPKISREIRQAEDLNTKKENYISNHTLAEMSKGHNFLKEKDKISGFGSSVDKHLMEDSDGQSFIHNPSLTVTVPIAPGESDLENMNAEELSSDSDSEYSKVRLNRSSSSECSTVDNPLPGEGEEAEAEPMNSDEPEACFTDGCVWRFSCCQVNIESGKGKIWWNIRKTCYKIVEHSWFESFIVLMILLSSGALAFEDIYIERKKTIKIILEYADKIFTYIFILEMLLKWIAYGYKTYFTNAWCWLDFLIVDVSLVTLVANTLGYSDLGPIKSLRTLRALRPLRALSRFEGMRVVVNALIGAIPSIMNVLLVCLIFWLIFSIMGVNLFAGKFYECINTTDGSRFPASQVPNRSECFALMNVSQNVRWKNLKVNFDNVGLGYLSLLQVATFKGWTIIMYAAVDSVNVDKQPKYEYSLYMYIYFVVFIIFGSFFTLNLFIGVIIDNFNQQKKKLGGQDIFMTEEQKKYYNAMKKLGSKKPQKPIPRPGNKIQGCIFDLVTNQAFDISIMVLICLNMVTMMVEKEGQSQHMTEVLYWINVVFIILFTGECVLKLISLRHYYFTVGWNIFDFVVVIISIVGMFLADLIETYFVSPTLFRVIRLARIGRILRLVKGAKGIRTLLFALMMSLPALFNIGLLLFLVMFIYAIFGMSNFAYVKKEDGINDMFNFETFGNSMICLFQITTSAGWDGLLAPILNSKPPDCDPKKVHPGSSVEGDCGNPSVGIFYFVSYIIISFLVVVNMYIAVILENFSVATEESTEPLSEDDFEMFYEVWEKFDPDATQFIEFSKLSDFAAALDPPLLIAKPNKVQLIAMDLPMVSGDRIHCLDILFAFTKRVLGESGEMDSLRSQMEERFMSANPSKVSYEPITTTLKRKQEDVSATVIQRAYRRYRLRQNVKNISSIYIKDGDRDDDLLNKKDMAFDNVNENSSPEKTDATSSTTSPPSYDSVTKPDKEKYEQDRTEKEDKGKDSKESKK

[4] = system: hNaV1.2, 1.5 and 1.7–1.8, hCaV1.2 and hKV11.1 currents; details: for Hill number nH, all concentration–response curves: SD
[5] = system: CFA-induced heat hyperalgesia; details: mouse, in vivo; cited from earlier work
hNaV1.3 = hNaV1.3 (Homo sapiens, UniProt Q9NY46); assay: cell-based; details: SD
NaV1.2 = details: cited from earlier work
NaV1.1 = details: cited from earlier work
NaV1.3 = details: cited from earlier work
NaV1.8 = details: cited from earlier work
hNaV1.6 = hNaV1.6 (Homo sapiens, UniProt Q9UQD0); assay: cell-based; details: SD
NaV1.5 = details: cited from earlier work
[6] = system: paw formalin injection pain; details: mouse, in vivo; cited from earlier work
Drosophila Para/TipE = details: cited from earlier work
[7] = system: OD1-induced painful behavior of mice; details: mouse, in vivo
NaV1.7 = details: cited from earlier work
hNaV1.1 = hNaV1.1 (Homo sapiens, UniProt P35498); assay: cell-based; details: SD
acute heat responses = details: in vivo, ip; cited from earlier work
hNaV1.1–1.8 = assay type: cell-based, human; details: read-out: IC90–95 (compound concentration necessary to inhibit 90–95% of current)
[8] = system: OD1-induced painful behavior of mice; details: mouse, in vivo; cited from earlier work
hNaV1.7 [9] = molecular target: T2, hNaV1.7; details: cited from earlier work

Work on `CC[C@H](C)[C@H](NC(=O)[C@H](CC(=O)O)NC(=O)[C@@H](NC(=O)[C@@H]1CCCN1C(=O)[C@@H](N)CCCNC(=N)N)[C@@H](C)O)C(=O)N[C@@H](CCCCN)C(=O)N[C@H]1CSSC[C@@H]2NC(=O)[C@H](CCCNC(=N)N)NC(=O)CNC(=O)[C@H](CC(N)=O)NC(=O)[C@H]([C@@H](C)O)NC(=O)[C@H](CCCCN)NC(=O)CNC(=O)[C@H](Cc3ccccc3)NC(=O)[C@H](CCCNC(=N)N)NC(=O)[C@H](CO)NC(=O)[C@H](CCCCN)NC(=O)[C@@H]3CSSC[C@@H](C(=O)N[C@@H](Cc4ccccc4)C(=O)O)NC(=O)[C@H](CC(=O)O)NC(=O)[C@H](CSSC[C@H](NC(=O)[C@H](CCC(N)=O)NC(=O)[C@H](Cc4ccc(O)cc4)NC(=O)[C@H](CO)NC(=O)[C@H](CCC(=O)O)NC(=O)[C@H](CO)NC1=O)C(=O)N[C@@H](Cc1ccccc1)C(=O)N1CCC[C@H]1C(=O)N[C@@H](C(C)C)C(=O)N3)NC(=O)[C@H](Cc1ccccc1)NC(=O)CNC(=O)[C@H](CC(N)=O)NC(=O)[C@H](C(C)C)NC2=O` [BeKm-1] (HELM PEPTIDE1{R.P.T.D.I.K.C.S.E.S.Y.Q.C.F.P.V.C.K.S.R.F.G.K.T.N.G.R.C.V.N.G.F.C.D.C.F}$PEPTIDE1,PEPTIDE1,7:R3-28:R3|PEPTIDE1,PEPTIDE1,13:R3-33:R3|PEPTIDE1,PEPTIDE1,17:R3-35:R3$$$V2.0) yielded an IC90 (hKV11.1 [1]) of 1000 nM.

In the case of `CC(C)C[C@@H]1NC(=O)[C@@H](NC(=O)[C@H](C)N)CSSC[C@@H]2NC(=O)[C@@H]3CSSC[C@@H](C(=O)N[C@@H](CCCNC(=N)N)C(=O)N[C@@H](Cc4ccc(O)cc4)C(=O)N[C@@H](CCCCN)C(=O)N[C@@H](CC(C)C)C(=O)N[C@@H](Cc4ccccc4)C(=O)O)NC(=O)[C@H](Cc4c[nH]c5ccccc45)NC(=O)[C@@H]4CCCN4C(=O)[C@H](Cc4ccc(O)cc4)NC(=O)[C@H](CCCCN)NC(=O)[C@H](Cc4c[nH]c5ccccc45)NC(=O)[C@H](CCC(=O)O)NC(=O)[C@H](CSSC[C@H](NC(=O)[C@H](CO)NC(=O)[C@H](C)NC(=O)[C@H](Cc4c[nH]c5ccccc45)NC(=O)[C@H](CCC(N)=O)NC(=O)CNC1=O)C(=O)N[C@@H](CC(=O)O)C(=O)N1CCC[C@H]1C(=O)N[C@@H](CCCCN)C(=O)N[C@@H](C)C(=O)N[C@@H](CO)C(=O)N[C@@H](CCCCN)C(=O)N3)NC(=O)[C@H](C)NC(=O)[C@H](Cc1ccc(O)cc1)NC(=O)[C@H](CC(N)=O)NC(=O)[C@@H]1CCCN1C2=O` [D7A] (HELM PEPTIDE1{A.C.L.G.Q.W.A.S.C.D.P.K.A.S.K.C.C.P.N.Y.A.C.E.W.K.Y.P.W.C.R.Y.K.L.F}$PEPTIDE1,PEPTIDE1,2:R3-17:R3|PEPTIDE1,PEPTIDE1,9:R3-22:R3|PEPTIDE1,PEPTIDE1,16:R3-29:R3$$$V2.0), the IC50 (hNaV1.2) is reported as 47.3 ± 5.2 nM, the “activity on the KV11.1 subtype” value (hKV11.1 [2]) is reported as “inactive” and the IC50 (hCaV1.2) is reported as 800 ± 253 nM. For the same compound, the IC50 (hNaV1.5) was 93.3 ± 32.9 nM, the IC50 (hNaV1.8; SD) was 4000 ± 500 nM and the IC50 (hNaV1.7 [3]; IC50 on hNaV1.7 current) was 73 ± 23.7 nM. The IC50 (hNaV1.7 [3]; hNaV1.7 IC50) was 47 nM, the “gain of affinity versus PhlTx1” value [4] was 2.5-7.4 fold and the “Hill number nH, all concentration–response curves” value [4] was 1.06 ± 0.13.

For `CC(C)C[C@@H]1NC(=O)[C@@H](NC(=O)[C@H](C)N)CSSC[C@@H]2NC(=O)[C@@H]3CSSC[C@@H](C(=O)N[C@@H](CCCNC(=N)N)C(=O)N[C@@H](Cc4ccc(O)cc4)C(=O)N[C@@H](CCCCN)C(=O)N[C@@H](CC(C)C)C(=O)N[C@@H](Cc4ccccc4)C(=O)O)NC(=O)[C@H](Cc4c[nH]c5ccccc45)NC(=O)[C@@H]4CCCN4C(=O)[C@H](Cc4ccc(O)cc4)NC(=O)[C@H](CCCCN)NC(=O)[C@H](Cc4c[nH]c5ccccc45)NC(=O)[C@H](CCC(=O)O)NC(=O)[C@H](CSSC[C@H](NC(=O)[C@H](CO)NC(=O)[C@H](CC(=O)O)NC(=O)[C@H](Cc4c[nH]c5ccccc45)NC(=O)[C@H](CCC(N)=O)NC(=O)CNC1=O)C(=O)N[C@@H](CC(=O)O)C(=O)N1CCC[C@H]1C(=O)N[C@@H](CCCCN)C(=O)N[C@@H](C)C(=O)N[C@@H](CO)C(=O)N[C@@H](CCCCN)C(=O)N3)NC(=O)[C@H](C)NC(=O)[C@H](Cc1ccc(O)cc1)NC(=O)[C@H](CC(N)=O)NC(=O)[C@@H]1CCCN1C2=O` [PhlTx1] (HELM PEPTIDE1{A.C.L.G.Q.W.D.S.C.D.P.K.A.S.K.C.C.P.N.Y.A.C.E.W.K.Y.P.W.C.R.Y.K.L.F}$PEPTIDE1,PEPTIDE1,2:R3-17:R3|PEPTIDE1,PEPTIDE1,9:R3-22:R3|PEPTIDE1,PEPTIDE1,16:R3-29:R3$$$V2.0), the “analgesia in CFA-induced heat hyperalgesia” value [5] is given as “ineffective”, the IC50 (hNaV1.3) is given as 202 ± 110 nM and the IC50 (hNaV1.2) is given as 73.7 ± 46.3 nM. The IC50 (hNaV1.2; read-out: IC50 on hNaV1.2 current) was 279 ± 6.1 nM, the “inhibition of NaV1.2 current” value (NaV1.2) was “less than 10%” and the “effect on the hKV11.1 current” value (hKV11.1 [2]) was “no effect”. The “inhibition of NaV1.1 current” value (NaV1.1) was “less than 10%”, the “inhibition of NaV1.3 current” value (NaV1.3) was “less than 10%” and the IC50 (hCaV1.2) was 5900 ± 2100 nM. For the same compound, the “inhibition of NaV1.8 current” value (NaV1.8) was “less than 10%”, the IC50 (hNaV1.6) was 491 ± 109 nM and the IC50 (hNaV1.5) was 711 nM and 396 nM. The IC50 (hNaV1.8) was over 10000 nM, the “effect on the hNaV1.8 current” value (hNaV1.8) was “unaffected” and the “inhibition of NaV1.5 current” value (NaV1.5) was “less than 10%”. For the same compound, the “effects in acute and inflammatory neuropathic (paw formalin injection) pain” value [6] was “Anti-allodynic and analgesic effects”, the “inhibition of Drosophila Para/TipE current” value (Drosophila Para/TipE) was “less than 10%” and the “pharmacological activity on the hNaV1.7 current” value (hNaV1.7 [3]) was “strongly inhibit”. The “selectivity towards the TTX-R (except hNaV1.8) and other TTX-S (except hNaV1.4) hNaV subtypes” value (hNaV1.7 [3]) was “less than 10 fold”, the IC50 (hNaV1.7 [3]; IC50 on hNaV1.7 current) was 309 ± 17 nM and the IC50 (hNaV1.7 [3]; hNaV1.7 IC50) was 254 nM. For the same compound, the “Hill number nH, all concentration–response curves” value [4] was 1.05 ± 0.15, the “cardiac or neuromuscular side-effects” value [7] was “no sign of cardiac or neuromuscular side-effects” and the “inhibition of NaV1.7 current” value (NaV1.7) was “greater than 90%”. The IC50 (NaV1.7; read-out: mean IC50 for interaction with the NaV1.7 subtype) was 260 nM, the IC50 (hNaV1.1) was 280 ± 118 nM and the “effect on mouse acute heat responses” value (acute heat responses) was “ineffective”.

For `NC1=N[C@H](O)[C@H]2[C@H]3O[C@]4(O)O[C@@H]([C@@H](O)[C@@]2(N1)[C@@H]4O)[C@]3(O)CO` [Tetrodotoxin (citrate), Tetrodotoxin], the IC90 (hNaV1.1–1.8) was 1000 nM.

In the case of “CcoTx2: spider toxin, NaV ligand (CLGWFKSCDPKNDKCCKNYTCSRRDRWCKYYL)”, the “concentration efficient to diminish or completely reverse the OD1-induced manifestations of pain” value [8] is listed as 1 µM and the IC50 (hNaV1.7 [9]) is listed as 95 nM.

For “Cd1a: spider toxin, NaV ligand (CLGWFKSCDPKNDKCCKNYSCSRRDRWCKYDL)”, the “concentration efficient to diminish or completely reverse the OD1-induced manifestations of pain” value [8] is given as 1 µM and the IC50 (hNaV1.7 [9]) is given as 16 nM.
